These results are taken from patent US11453663B2, “Substituted propanamides as inhibitors of nucleases” (MASARYKOVA UNIVERZITA, priority 2018, dated 2022).

A value given as a limit tells only on which side of the number the result lay.

The test system of experiment [1] is DR-GFP U2OS cells. The experiment in a line: HR assay (GFP fluorescence by flow cytometry after I-SceI transfection). The class given is cell-based. As to conditions: Homo sapiens, 25 μM inhibitor, 72 hours after transfection. As to the method:
DR-GFP U2OS cells (Methods in Molecular Biology 2012, 920, 379.) were transfected with 2.5 μg of I-SceI-expressing pCAGGS vector and treated with the inhibitors at 25 μM concentration. 72 hours after the transfection, the cells were trypsinized and resuspended in 3% BSA in PBS. GFP fluorescence detection was carried out using a BD FACSVerse flow cytometer and data analyzed with FlowJo software.
Background: In flow cytometry, cells or beads pass a laser one at a time.

For experiment [2], the target named is MRE11 (Homo sapiens (Human), UniProt P49959). The experiment in a line: HTS nuclease assay (fluorescence-quenched 5′ overhang DNA substrate cleavage). The conditions noted are these: 18 nM MRE11, 40 nM DNA substrate, analysis at t=4 h. The experiment is classed as biochemical. As to the method: DNA Substrate Preparation
The DNA substrate is prepared by mixing the oligonucleotides listed below in a 1:1 ratio to reach a final concentration of 6 μM in a buffer containing 50 mM Tris pH 7.5, 100 mM NaCl and 8 mM MgCl2.
The mixture is heat for 3 min at 65° C. and let to cool down slowly to RT. Then it is stored at −20° C.
This substrate is a 5′ overhang, which is a preferred substrate of MRE11. […] The fluorescence increases upon substrate cleavage by MRE11, when separation of the two labels occur.
The conditions of the assay are as follows:
Total reaction volume: 5 μL
DNA substrate concentration in the reaction: 40 nM
Inhibitor concentration range tested: 7 nM-50 μM
Each plate contains a series of high and low signal control wells, where no compound is added:
High signal: MRE11+DNA substrate
Low signal: DNA substrate only
These are used during data evaluation.
Two Extra Assay Controls:
1) To check whether unwinding of DNA by the compounds alone occurs.
The DNA substrate [CY5+BBQ(650)] is mixed with the compounds with no protein present.
The CY5 single stranded oligo is mixed with the compounds with no protein present.
The layout of the plates is created by the in-house software (CZ-Openscreen Prague) and this information is transferred to the robotic HTS station.
The reaction is started by the addition of DNA and the reaction time is counted from that moment, including a 15 min delay. Ten timepoints are measured:
The assay data analysis was performed at t=4 h. This corresponds to the time when the reaction is close to its maximum.
The data analysis was performed using the in-house software (CZ-Openscreen Prague) to obtain IC50 for each compound.

As a reminder, the inhibition is the drop in the measured response relative to a control, in per cent. Read a low inhibition as little suppression. A word on the IC50: it is the concentration that gives 50% inhibition. High values mean a need for much substance, low ones inhibition by little substance.

MRE11, sequence (P49959 whole entry): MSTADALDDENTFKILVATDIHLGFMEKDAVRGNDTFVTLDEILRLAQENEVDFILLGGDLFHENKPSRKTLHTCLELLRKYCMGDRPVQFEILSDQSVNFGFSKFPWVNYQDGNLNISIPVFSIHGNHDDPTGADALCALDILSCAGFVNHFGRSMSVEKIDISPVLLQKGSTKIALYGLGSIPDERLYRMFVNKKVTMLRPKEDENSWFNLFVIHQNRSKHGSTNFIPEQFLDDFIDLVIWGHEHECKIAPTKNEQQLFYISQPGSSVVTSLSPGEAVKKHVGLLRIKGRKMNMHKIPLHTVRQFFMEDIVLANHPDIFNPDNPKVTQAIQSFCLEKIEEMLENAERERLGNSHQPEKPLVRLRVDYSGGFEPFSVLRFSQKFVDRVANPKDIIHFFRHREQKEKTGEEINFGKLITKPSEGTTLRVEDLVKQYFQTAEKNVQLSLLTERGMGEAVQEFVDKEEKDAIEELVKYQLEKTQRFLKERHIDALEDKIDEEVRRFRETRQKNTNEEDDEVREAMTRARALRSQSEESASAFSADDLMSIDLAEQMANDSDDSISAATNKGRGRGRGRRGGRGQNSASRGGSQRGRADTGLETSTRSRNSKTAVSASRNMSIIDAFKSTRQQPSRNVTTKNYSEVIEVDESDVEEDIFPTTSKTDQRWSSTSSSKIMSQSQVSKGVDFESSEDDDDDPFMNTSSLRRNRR

For `COc1ccc(-c2csc(NC(=O)C(C#N)Cc3ccc(O)c(O)c3)n2)nc1` (stereo not drawn) [Preparative Example 168, 2-cyano-3-(3,4-dihydroxyphenyl)-N-(4-(5-methoxypyridin-2-yl)thiazol-2-yl)propanamide], the inhibition at 25 µM in experiment [1] is > 75%. The IC50 in experiment [2] was < 2 µM.
With `N#CC(Cc1cc(C(F)(F)F)cc(C(F)(F)F)c1)C(=O)Nc1nc(-c2ccccc2)cs1` (stereo not drawn) [Preparative Example 163, 3-(3,5-bis(trifluoromethyl)phenyl)-2-cyano-N-(4-phenylthiazol-2-yl)propanamide], in experiment [1], the inhibition at 25 µM was > 75%.
`N#CC(Cc1ccc(O)c(O)c1)C(=O)Nc1nc(-c2ccc3c(c2)CCCC3)cs1` (stereo not drawn) [Preparative Example 153, 2-cyano-3-(3,4-dihydroxyphenyl)-N-(4-(5,6,7,8-tetrahydronaphthalen-2-yl)thiazol-2-yl)propanamide]: the inhibition at 25 µM in experiment [1] was > 75%. The compound further came in with an IC50 in experiment [2] of 2 to 10 µM.
For the compound `N#Cc1ccc(-c2csc(NC(=O)C(C#N)Cc3ccc(O)c(O)c3)n2)cc1` (stereo not drawn) [Preparative Example 131, 2-cyano-N-(4-(4-cyanophenyl)thiazol-2-yl)-3-(3,4-dihydroxyphenyl)propanamide], the inhibition at 25 µM in experiment [1] lay in the range of 50 to 75%. The same compound came in with an IC50 in experiment [2] of 2 to 10 µM.
For `N#CC(Cc1ccc(O)c(O)c1)C(=O)Nc1nc(-c2cccc(-c3ccccc3)c2)cs1` (stereo not drawn) [Preparative Example 138, N-(4-([1,1′-biphenyl]-3-yl)thiazol-2-yl)-2-cyano-3-(3,4-dihydroxyphenyl)propanamide], the inhibition at 25 µM in experiment [1] was > 75%. Moreover, the IC50 in experiment [2] lay within 2 to 10 µM.
In the case of `Cc1cccc(-c2csc(NC(=O)C(C#N)Cc3ccc(O)c(O)c3)n2)n1` (stereo not drawn) [Preparative Example 158, 2-cyano-3-(3,4-dihydroxyphenyl)-N-(4-(6-methylpyridin-2-yl)thiazol-2-yl)propanamide], in experiment [1], the inhibition at 25 µM is > 75%. The same compound had an IC50 in experiment [2] of 2 to 10 µM.
`N#CC(Cc1ccc(O)c(O)c1)C(=O)Nc1nc(-c2ccccc2)c(C2CCCCC2)s1` (stereo not drawn) [Preparative Example 146, 2-cyano-N-(5-cyclohexyl-4-phenylthiazol-2-yl)-3-(3,4-dihydroxyphenyl)propanamide]: the inhibition at 25 µM in experiment [1] was > 75%. Also, in experiment [2], the IC50 lay in the range of 2 to 10 µM.
Taken in the same sequence, the figures for `N#CC(Cc1cc(F)c(O)c(Cl)c1)C(=O)Nc1nc(-c2ccccc2)cs1` (stereo not drawn) [Preparative Example 156, 3-(3-chloro-5-fluoro-4-hydroxyphenyl)-2-cyano-N-(4-phenylthiazol-2-yl)propanamide] were < 50% and 2 to 10 µM.
The matching figures for `N#CC(Cc1ccc(O)c(O)c1)C(=O)Nc1nc(-c2ccsc2)cs1` (stereo not drawn) [Preparative Example 145, 2-cyano-3-(3,4-dihydroxyphenyl)-N-(4-(thiophen-3-yl)thiazol-2-yl)propanamide]: < 50% and 2 to 10 µM.
Regarding `CC(C)c1ccc(-c2csc(NC(=O)C(C#N)Cc3ccc(O)c(O)c3)n2)cc1` (stereo not drawn) [Preparative Example 166, 2-cyano-3-(3,4-dihydroxyphenyl)-N-(4-(4-isopropylphenyl)thiazol-2-yl)propanamide], in experiment [1], the inhibition at 25 µM was > 75%. Also, the IC50 in experiment [2] fell in the range of 2 to 10 µM.
Regarding `Cc1ccc(-c2csc(NC(=O)C(C#N)Cc3ccc(O)c(O)c3)n2)cc1` (stereo not drawn) [Preparative Example 133, 2-cyano-3-(3,4-dihydroxyphenyl)-N-(4-(p-tolyl)thiazol-2-yl)propanamide], the inhibition at 25 µM in experiment [1] was < 50%. The compound further gave a concentration for half-maximal inhibition (IC50) in experiment [2] of 2 to 10 µM.
Compound `Cc1cc(CC(C#N)C(=O)Nc2nc(-c3ccccc3)cs2)cc(C)c1O` (stereo not drawn) [Preparative Example 147, 2-cyano-3-(4-hydroxy-3,5-dimethylphenyl)-N-(4-phenylthiazol-2-yl)propanamide] had an inhibition at 25 µM in experiment [1] of 50 to 75%. The same compound displayed an IC50 in experiment [2] of 10 to 90 µM.
The matching figures for `COc1ccc(-c2csc(NC(=O)C(C#N)Cc3ccc(O)c(O)c3)n2)c(F)c1` (stereo not drawn) [Preparative Example 173, 2-cyano-3-(3,4-dihydroxyphenyl)-N-(4-(2-fluoro-4-methoxyphenyl)thiazol-2-yl)propanamide]: > 75% and < 2 µM.
With `N#CC(Cc1ccc(O)c(O)c1)C(=O)Nc1nc(-c2ccccc2C(F)(F)F)cs1` (stereo not drawn) [Preparative Example 159, 2-cyano-3-(3,4-dihydroxyphenyl)-N-(4-(2-(trifluoromethyl)phenyl)thiazol-2-yl)propanamide], the inhibition at 25 µM in experiment [1] is < 50%. Also, the IC50 in experiment [2] lay in the range of 2 to 10 µM.
As to `CC(C#N)(Cc1ccc(O)c(O)c1)C(=O)Nc1nc(-c2ccccc2)cs1` (stereo not drawn) [Preparative Example 179, 2-cyano-3-(3,4-dihydroxyphenyl)-2-methyl-N-(4-phenylthiazol-2-yl)propanamide], the inhibition at 25 µM in experiment [1] was < 50%. Also, in experiment [2], the IC50 fell in the range of 10 to 90 µM.
In the case of `Cc1ccc(-c2sc(NC(=O)C(C#N)Cc3ccc(O)c(O)c3)nc2-c2ccccc2)cc1` (stereo not drawn) [Preparative Example 135, 2-cyano-3-(3,4-dihydroxyphenyl)-N-(4-phenyl-5-(p-tolyl)thiazol-2-yl)propanamide], the inhibition at 25 µM in experiment [1] was > 75%. For the same compound, the IC50 in experiment [2] was < 2 µM.
Take `N#CC(Cc1cc(Cl)c(O)c(Cl)c1)C(=O)Nc1nc(-c2ccc3ccccc3c2)cs1` (stereo not drawn) [Preparative Example 143, 2-cyano-3-(3,5-dichloro-4-hydroxyphenyl)-N-(4-(naphthalen-2-yl)thiazol-2-yl)propanamide]: the inhibition at 25 µM in experiment [1] is < 50%. In experiment [2], this compound showed a 50% inhibitory concentration (IC50) of 2 to 10 µM.
Consider `Cc1ccnc(-c2csc(NC(=O)C(C#N)Cc3ccc(O)c(O)c3)n2)c1` (stereo not drawn) [Preparative Example 164, 2-cyano-3-(3,4-dihydroxyphenyl)-N-(4-(4-methylpyridin-2-yl)thiazol-2-yl)propanamide], for which the inhibition at 25 µM in experiment [1] is > 75%. Moreover, the IC50 in experiment [2] is 2 to 10 µM.
Taken in the same sequence, the figures for `N#CC(Cc1ccc(O)c(O)c1)C(=O)Nc1nc(-c2ccc(Cl)c(Cl)c2)cs1` (stereo not drawn) [Preparative Example 160, 2-cyano-N-(4-(3,4-dichlorophenyl)thiazol-2-yl)-3-(3,4-dihydroxyphenyl)propanamide] were 50 to 75% and < 2 µM.
In the case of `Cc1ccc(-c2csc(NC(=O)C(C#N)Cc3ccc(O)c(O)c3)n2)nc1` (stereo not drawn) [Preparative Example 165, 2-cyano-3-(3,4-dihydroxyphenyl)-N-(4-(5-methylpyridin-2-yl)thiazol-2-yl)propanamide], the inhibition at 25 µM in experiment [1] is > 75%. The IC50 in experiment [2] is < 2 µM.
For the compound `CC(c1ccc(O)c(O)c1)C(C#N)C(=O)Nc1nc(-c2ccccc2)cs1` (stereo not drawn) [Preparative Example 177, 2-cyano-3-(3,4-dihydroxyphenyl)-N-(4-phenylthiazol-2-yl)butanamide], the inhibition at 25 µM in experiment [1] lay within 50 to 75%.
For the compound `CC(C)(C)c1ccc(-c2csc(NC(=O)C(C#N)Cc3cc(C(C)(C)C)c(O)c(C(C)(C)C)c3)n2)cc1` (stereo not drawn) [Preparative Example 150, N-(4-(4-(tert-butyl)phenyl)thiazol-2-yl)-2-cyano-3-(3,5-di-tert-butyl-4-hydroxyphenyl)propanamide], the inhibition at 25 µM in experiment [1] is > 75%.
Consider `CC(=O)Nc1ccc(CC(C#N)C(=O)Nc2nc(-c3ccccc3)cs2)cc1` (stereo not drawn) [Preparative Example 128, 3-(4-acetamidophenyl)-2-cyano-N-(4-phenylthiazol-2-yl)propanamide], for which, in experiment [1], the inhibition at 25 µM is 50 to 75%.
